Data set [1] is described as follows: in vitro stability in CES1−/− mouse plasma. Type of data set: in vitro ADME. The note with it: CES1−/− mouse plasma, 10 μM, 37° C. As to the method: All synthesized prodrugs were next screened for in vitro stability in carboxylesterase 1 knockout (CES1^−/−) mouse plasma, as well as CES1^−/− mouse brain and liver homogenates (Table 2-1). We have previously reported that CES1^−/− mouse model recapitulates human prodrug metabolism. Tenora et al., 2019.
Zimmermann et al., 2018. For the tissue homogenates, washed tissues were diluted 10-fold in 0.1 M potassium phosphate buffer and homogenized using a probe sonicator. To evaluate the stability of the intact prodrug over time, each of the crude homogenates and plasma were aliquoted to 1 mL and then spiked with a final assay concentration of 10 μM of each prodrug followed by incubation in an orbital shaker at 37° C. for 1 h (in triplicate). Sample from each incubation at predetermined time points (0 min, and 1 h) was quenched with three volumes of acetonitrile containing the internal standard (IS; losartan: 0.5 μm). Samples were vortex-mixed for 30 secs and centrifuged at 10,000×g for 10 min at 4° C. Disappearance of intact prodrugs from these samples were performed on a Dionex ultra-high-performance LC system coupled with Q Exactive Focus orbitrap mass spectrometer (Thermo Fisher Scientific Inc., Waltham MA). The separation of analytes was achieved using the Agilent Eclipse Plus column (100×2.1 mm i.d.; maintained at 35° C.) packed with a 1.8 μm C18 stationary phase. The mobile phase consisted of 0.1% formic acid in water and 0.1% formic acid in acetonitrile. Pumps were operated at a flow rate of 0.4 mL/min for 9 min using gradient elution. The mass spectrometer controlled by Xcalibur software 4.0.27.13 (Thermo Scientific) was operated with a heated electrospray ionization (HESI) ion source in positive ionization mode. Quantification of the prodrugs were performed in the full-scan mode (from m/z 50 to 1600) by comparing t=0 samples with t=60 min samples.

The subject of data set [2] is IL-1β-induced release of GFP+ EVs into plasma. Put plainly: EV release in vivo, IL-1β mouse model of acute brain injury. The settings on record: P18 3 and 10 mg/kg DPTIP equivalent PO 30 min before intrastriatal IL-1β; 4 h. The source says: We have previously reported that nSMase2 regulates the secretion of extracellular vesicles from astrocytes in response to a focal inflammatory brain lesion. Rojas et al., 2018. Striatal injection of IL-1β in mice expressing GFAP-EGFP in astroglia evokes the release of GFP-labelled EVs that rapidly enter into plasma and target multiple organ systems. Dickens et al., 2017. We used this mouse model to evaluate the ability of P18 to inhibit EV release by the inhibition of nSMase2 activity in vivo. […] Interleukin-1β-injected mice, orally pre-dosed with P18 (30 min prior) were euthanized 4-hours post-IL-1β injection. GFP labeled (GFP+) EVs were quantified in plasma and nSMase2 activity was measured in the brain striata.
Striatal injections and EV measurements were performed as previously described by our group. Dickens et al., 2017; Mccluskey et al., 2008. […] Mice subjected to intrastriatal injection of IL-1β were also injected with the NSAID carprofen (rimadyl, 5 mg/kg. i.p.) and closely monitored during recovery; no adverse reactions were observed. […] Quantitation of Plasma EVs: Dynabeads M-450) Epoxy (Invitrogen) were coupled with anti-GFP antibody (Thermo Fisher) at a ratio of 200-μg antibody per 4×10^8 beads. […] The concentration of immunoprecipitated GFP+ EVs was quantified using ZetaView nanoparticle tracking analysis (Particle Metrix) and corresponding ZetaView software (8.05.14.SP7). […]

“Also recorded” adds a separate entry of the source.

With `CCC1CC(N2CCCCC2)CC(CC)N1C(=O)Oc1c(OC)cc(-c2nc(-c3ccccc3)c(-c3cccs3)[nH]2)cc1OC` (centres unmarked) [Compound P18, 2,6-Dimethoxy-4-(5-phenyl-4-(thiophen-2-yl)-1H-imidazol-2-yl)phenyl 2′,6′-diethyl-[1,4′-bipiperidine]-1′-carboxylate], the “Stability in mouse (% remaining at 1h) Mean + Std Error, Plasma” value in data set [1] was determined as 92 ± 7%. Further, in data set [2], the “IL-1β-induced release of GFP+ EVs into plasma” value was “significantly inhibited IL-1β-induced EV release into plasma; also recorded: inhibited the release of brain derived GFP+ EVs into blood at both 3 and 10 mg/kg; also recorded: significant inhibition”.

For the origin of these results see patent publication US20240287108A1, “nSMASE2 INHIBITOR PRODRUGS WITH ENHANCED ORAL AND BRAIN EXPOSURES” (The Johns Hopkins University, priority 2021, published 2024).
